Data on 7 compounds can be found in ChEMBL document CHEMBL3352506, “Betulin derivatives impair Leishmania braziliensis viability and host-parasite interaction” (Bioorg Med Chem, 2014).

Structures are written as SMILES. The source made the active and inactive calls. No cut-off for these calls is given here.

Data set [1] relates to Leishmania braziliensis. Description: Leishmanicidal activity against Leishmania braziliensis assessed as dead cells at 10^-12 to 10^-7 M after 30 mins by chemotactic assay. Type of data set: functional, organism-based.
For data set [2], the system named is Leishmania braziliensis. The data set can be described thus: Antiparasitic activity against Leishmania braziliensis assessed as inhibition of growth after 72 hrs. The format is functional, organism-based.
The subject of the next data set is J774.A1. The data set can be described thus: Cytotoxicity against mouse J774.A1 cells. Type of data set: cell-based.
Data set [3] deals with Leishmania braziliensis. The data set can be described thus: Leishmanicidal activity against Leishmania braziliensis assessed as dead cells at 10^-6 M after 30 mins by chemotactic assay. The format is functional. As to conditions: 0.5 h.
Data set [4] concerns Leishmania braziliensis. Description: Antiparasitic activity against Leishmania braziliensis assessed as inhibition of growth after 72 hrs at 10 uM. The format is functional.
Data set [5] can be described thus: Selectivity index, ratio of IC50 for mouse J774.A1 cells to IC50 for Leishmania braziliensis. Particulars: J774.A1 cells versus Leishmania braziliensis, read-out: Ratio IC50. Type of data set: toxicity, cell-based.
The subject of data set [6] is Leishmania braziliensis. Description: Leishmanicidal activity against Leishmania braziliensis assessed as reduction in parasite migration at 10^-6 M after 30 mins by chemotactic assay. Type of data set: functional, organism-based.
Data set [7] relates to Leishmania braziliensis. The data set can be described thus: Antiparasitic activity against Leishmania braziliensis assessed as inhibition of infection with mouse J774.A1 cells measured infected cells […] at 1 x 10^-9 M after 4 hrs. Type of data set: functional. More on the design: scale not given: the % may be the effect or the level left.
Data set [8] has as its system Leishmania braziliensis. The data set can be described thus: Antiparasitic activity against Leishmania braziliensis assessed as inhibition of infection with mouse J774.A1 cells measured as >10 parasites per cell at 1 x 10^-9 M after 4 hrs. The format is functional. More on the design: scale not given: the % may be the effect or the level left.
Data set [9] deals with Leishmania braziliensis. Description: Antiparasitic activity against Leishmania braziliensis assessed as inhibition of infection with mouse J774.A1 cells measured as <5 parasites per cell at 1 x 10^-7 M after 4 hrs. Type of data set: functional. More on the design: scale not given: the % may be the effect or the level left.
Data set [10] concerns Leishmania braziliensis. Description: Antiparasitic activity against Leishmania braziliensis assessed as inhibition of infection with mouse J774.A1 cells measured as >10 parasites per cell at 1 x 10^-8 M after 4 hrs. Type of data set: functional. Also on record: scale not given: the % may be the effect or the level left.
Data set [11] relates to Leishmania braziliensis. The data set can be described thus: Antiparasitic activity against Leishmania braziliensis assessed as inhibition of infection with mouse J774.A1 cells measured infected cells […] at 1 x 10^-8 M after 4 hrs. Type of data set: functional. More on the design: scale not given: the % may be the effect or the level left.
In data set [12] the test system is Leishmania braziliensis. The data set can be described thus: Antiparasitic activity against Leishmania braziliensis assessed as inhibition of infection with mouse J774.A1 cells measured as <5 parasites per cell at 1 x 10^-8 M after 4 hrs. The format is functional. Also on record: scale not given: the % may be the effect or the level left.
The subject of data set [13] is Leishmania braziliensis. Description: Antiparasitic activity against Leishmania braziliensis assessed as inhibition of infection with mouse J774.A1 cells measured as 5 to 10 parasites per cell at 1 x 10^-7 M after 4 hrs. The format is functional. Also on record: scale not given: the % may be the effect or the level left.
In data set [14] the test system is Leishmania braziliensis. The data set can be described thus: Antiparasitic activity against Leishmania braziliensis assessed as inhibition of infection with mouse J774.A1 cells measured as 5 to 10 parasites per cell at 1 x 10^-8 M after 4 hrs. Type of data set: functional. More on the design: scale not given: the % may be the effect or the level left.
The test system of data set [15] is Leishmania braziliensis. The data set can be described thus: Antiparasitic activity against Leishmania braziliensis assessed as inhibition of infection with mouse J774.A1 cells measured as >10 parasites per cell at 1 x 10^-7 M after 4 hrs. Type of data set: functional. More on the design: scale not given: the % may be the effect or the level left.
Data set [16] has as its system Leishmania braziliensis. The data set can be described thus: Antiparasitic activity against Leishmania braziliensis assessed as inhibition of infection with mouse J774.A1 cells measured attached parasites at 1 x 10^-7 M after 4 hrs. More on the design: scale not given: the % may be the effect or the level left. Type of data set: functional.
For data set [17], the system named is Leishmania braziliensis. Description: Antiparasitic activity against Leishmania braziliensis assessed as inhibition of infection with mouse J774.A1 cells measured as 5 to 10 parasites per cell at 1 x 10^-9 M after 4 hrs. Also on record: scale not given: the % may be the effect or the level left. Type of data set: functional.
For data set [18], the system named is Leishmania braziliensis. The data set can be described thus: Antiparasitic activity against Leishmania braziliensis assessed as inhibition of infection with mouse J774.A1 cells measured infected cells […] at 1 x 10^-7 M after 4 hrs. Type of data set: functional. More on the design: scale not given: the % may be the effect or the level left.
Data set [19] concerns Leishmania braziliensis. Description: Antiparasitic activity against Leishmania braziliensis assessed as inhibition of infection with mouse J774.A1 cells measured attached parasites at 1 x 10^-9 M after 4 hrs. Type of data set: functional. Also on record: scale not given: the % may be the effect or the level left.
Data set [20] has as its system Leishmania braziliensis. The data set can be described thus: Antiparasitic activity against Leishmania braziliensis assessed as inhibition of infection with mouse J774.A1 cells measured as <5 parasites per cell at 1 x 10^-9 M after 4 hrs. Also on record: scale not given: the % may be the effect or the level left. Type of data set: functional.
Data set [21] deals with Leishmania braziliensis. The data set can be described thus: Antiparasitic activity against Leishmania braziliensis assessed as inhibition of infection with mouse J774.A1 cells measured attached parasites at 1 x 10^-8 M after 4 hrs. The format is functional. Also on record: scale not given: the % may be the effect or the level left.
Data set [22] has as its system Leishmania braziliensis. Description: Antiparasitic activity against Leishmania braziliensis assessed as inhibition of infection with mouse J774.A1 cells measured attached parasites at 1 uM after 4 hrs. The format is functional. More on the design: scale not given: the % may be the effect or the level left.
The subject of data set [23] is Leishmania braziliensis. The data set can be described thus: Antiparasitic activity against Leishmania braziliensis assessed as inhibition of infection with mouse J774.A1 cells measured as >10 parasites per cell at 1 uM after 4 hrs. More on the design: scale not given: the % may be the effect or the level left. The format is functional.
In data set [24] the test system is Leishmania braziliensis. The data set can be described thus: Antiparasitic activity against Leishmania braziliensis assessed as inhibition of infection with mouse J774.A1 cells measured as 5 to 10 parasites per cell at 1 uM after 4 hrs. The format is functional. More on the design: scale not given: the % may be the effect or the level left.
The subject of data set [25] is Leishmania braziliensis. Description: Antiparasitic activity against Leishmania braziliensis assessed as inhibition of infection with mouse J774.A1 cells measured infected cells at 1 uM after 4 hrs. Type of data set: functional. More on the design: scale not given: the % may be the effect or the level left.
Data set [26] has as its system Leishmania braziliensis. The data set can be described thus: Antiparasitic activity against Leishmania braziliensis assessed as inhibition of infection with mouse J774.A1 cells measured as <5 parasites per cell at 1 uM after 4 hrs. Also on record: scale not given: the % may be the effect or the level left. Type of data set: functional.

With `C=C(C)[C@@H]1CC[C@]2(/C=N/O)CC[C@]3(C)[C@H](CC[C@@H]4[C@@]5(C)CC/C(=N\O)C(C)(C)[C@@H]5CC[C@]43C)[C@@H]12` [BETULIN-3,28-DIOXIME], in the data set with Leishmania braziliensis [1], the Activity result was “Dose-dependent effect”. In addition, the 50% inhibitory concentration (IC50) (usually the concentration that gives 50% inhibition) is 3.35 µM with Leishmania braziliensis [2] and > 10 µM in the data set on J774.A1. For the same compound, the inhibition (in general, the drop in the measured response relative to a control, in per cent) at 1 µM in the data set with Leishmania braziliensis [3] came out at 25%. The inhibition at 10 µM with Leishmania braziliensis [4] was determined as 50%. For the same compound, the selectivity ratio in data set [5] was > 3.
As for `C=C(C)[C@@H]1CC[C@]2(/C=N/O)CC[C@]3(C)[C@H](CC[C@@H]4[C@@]5(C)CC[C@H](O)C(C)(C)[C@@H]5CC[C@]43C)[C@@H]12`, the result in the data set on Leishmania braziliensis [6] was Active. The results for the 50% inhibitory concentration (IC50) in the data set with Leishmania braziliensis [2] and in the data set with J774.A1 were 4.12 µM and > 10 µM, respectively. The inhibition at 1 µM in the data set on Leishmania braziliensis [3] turned out to be 66%. Further, the inhibition at 10 µM in the data set on Leishmania braziliensis [4] was 50%. Besides, the selectivity ratio in [5] is > 2.5.
Turning to `CC(C)[C@@]12CC[C@]3(COC=O)CC[C@]4(C)C(=C31)C(C[C@@H]1[C@@]3(C)CC[C@H](OC=O)C(C)(C)[C@@H]3CC[C@]14C)n1c(=O)n(C)c(=O)n12` (some centres undefined), the Activity was 10.3% in the data set with Leishmania braziliensis [7]; 6.34% in the data set with Leishmania braziliensis [8]; 61.91% in the data set on Leishmania braziliensis [9]; 4.78% in the data set with Leishmania braziliensis [10]; 13.4% in the data set with Leishmania braziliensis [11]; “Dose-dependent effect” with Leishmania braziliensis [1]. Besides, the Activity is given as 59.79% with Leishmania braziliensis [12]; 25.15% with Leishmania braziliensis [13]; 31.09% in the data set with Leishmania braziliensis [14]; 3.86% in the data set on Leishmania braziliensis [15]; 59% with Leishmania braziliensis [16]; 15.86% in the data set with Leishmania braziliensis [17]. Moreover, the Activity in the data set with Leishmania braziliensis [18] turned out to be 17.7%; in the data set on Leishmania braziliensis [19], 55%; in the data set on Leishmania braziliensis [20], 76.14%; in the data set with Leishmania braziliensis [21] it was 46.6%. Also, the results for the IC50 in the data set on Leishmania braziliensis [2] and in the data set on J774.A1 were 0.25 µM and > 10 µM, respectively. Also, the inhibition at 1 µM in the data set on Leishmania braziliensis [3] amounted to 25%. Moreover, in data set [5], the selectivity ratio was > 40.
With `C=C(C)[C@@H]1CC[C@]2(C(=O)O)CC[C@]3(C)[C@H](CC[C@@H]4[C@@]5(C)CCC(=O)C(C)(C)[C@@H]5CC[C@]43C)[C@@H]12` [BETUNOLIC ACID], in the data set with Leishmania braziliensis [4], the inhibition at 10 µM was 50%.
Turning to `C[C@@H]1[C@H](O)[C@@H](C)/C=C/C=C/C=C/C=C/C=C/C=C/C=C/[C@H](O[C@@H]2O[C@H](C)[C@@H](O)[C@H](N)[C@@H]2O)C[C@@H]2O[C@](O)(C[C@@H](O)C[C@@H](O)[C@H](O)CC[C@@H](O)C[C@@H](O)CC(=O)O[C@H]1C)C[C@H](O)[C@H]2C(=O)O` [AMPHOTERICIN B], the Activity in the data set with Leishmania braziliensis [22] was 41.3%; in the data set on Leishmania braziliensis [23], 7.15%; in the data set on Leishmania braziliensis [24], 21.45%; in the data set with Leishmania braziliensis [25], 15.2%; in the data set on Leishmania braziliensis [26], 71.51%.
As for `CC(C)[C@@]12CC[C@]3(C=O)CC[C@]4(C)C(=C31)C(C[C@@H]1[C@@]3(C)CC[C@H](O)C(C)(C)[C@@H]3CC[C@]14C)n1c(=O)n(C)c(=O)n12` (some centres undefined), the Activity in the data set with Leishmania braziliensis [7] is 14.4%; with Leishmania braziliensis [8] it was 6.83%; in the data set on Leishmania braziliensis [9] it was 84.09%; in the data set with Leishmania braziliensis [10], 7.29%; with Leishmania braziliensis [11], 13.7%; in the data set on Leishmania braziliensis [12] it was 90.02%. Also, the Activity in the data set with Leishmania braziliensis [13] is on record as 5.09%; in the data set on Leishmania braziliensis [14] it was 9.73%; in the data set on Leishmania braziliensis [15], 5.09%; in the data set with Leishmania braziliensis [16], 62.3%; in the data set on Leishmania braziliensis [17] it was 15.93%; in the data set with Leishmania braziliensis [18], 12.7%. Further, the Activity in the data set on Leishmania braziliensis [19] came to 50%; with Leishmania braziliensis [20], 77.41%; with Leishmania braziliensis [21], 56.7%. For the same compound, the result with Leishmania braziliensis [6] was Active. Moreover, the IC50 with Leishmania braziliensis [2] was 2.06 µM; in the data set on J774.A1, > 10 µM. Further, in the data set with Leishmania braziliensis [3], the inhibition at 1 µM came to 25%. The selectivity ratio in [5] was > 5.
For `CC(=O)OC[C@]12CC[C@]3(C(C)C)C1=C1C(C[C@@H]4[C@@]5(C)CC[C@H](OC(C)=O)C(C)(C)[C@@H]5CC[C@@]4(C)[C@]1(C)CC2)n1c(=O)n(C)c(=O)n13` (some centres undefined), the inhibition at 10 µM in the data set on Leishmania braziliensis [4] worked out at 50%.
